According to publication PMC7321218, “Synthetic (E)-3-Phenyl-5-(phenylamino)-2-styryl-1,3,4-thiadiazol-3-ium Chloride Derivatives as Promising Chemotherapy Agents on Cell Lines Infected with HTLV-1” (Molecules, 2020):

Assays:
[1] = biological target: T1, human serum albumin (HSA) (Homo sapiens, UniProt P02768); test: Time-resolved fluorescence decay of HSA; assay type: binding; conditions: HSA 1.00 × 10^−5 M with 1.32 × 10^−5 M compound, ca 298 K
T1 construct: three analogous domains (I, II, and III) having amino acid residues of 1–195, 196–383, and 384–585
T1 sequence (P02768 25-609): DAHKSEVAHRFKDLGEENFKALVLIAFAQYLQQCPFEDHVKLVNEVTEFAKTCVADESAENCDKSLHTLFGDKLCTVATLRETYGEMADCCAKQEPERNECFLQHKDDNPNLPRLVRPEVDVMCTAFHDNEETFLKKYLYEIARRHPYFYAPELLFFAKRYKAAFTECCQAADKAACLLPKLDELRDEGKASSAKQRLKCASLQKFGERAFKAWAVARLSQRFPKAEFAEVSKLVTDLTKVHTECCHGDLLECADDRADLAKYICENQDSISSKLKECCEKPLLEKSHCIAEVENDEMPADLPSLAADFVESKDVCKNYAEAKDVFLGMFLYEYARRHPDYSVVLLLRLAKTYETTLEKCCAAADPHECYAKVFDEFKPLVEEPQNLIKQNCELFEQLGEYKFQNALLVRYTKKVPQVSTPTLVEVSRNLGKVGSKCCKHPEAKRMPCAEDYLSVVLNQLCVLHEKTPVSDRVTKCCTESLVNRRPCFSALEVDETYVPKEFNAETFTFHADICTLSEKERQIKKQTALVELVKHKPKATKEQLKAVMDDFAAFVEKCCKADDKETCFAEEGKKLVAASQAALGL
Description: The time-resolved fluorescence decay of a 3.0 mL solution of HSA (1.00 × 10^−5 M, in phosphate buffer solution-PBS) was measured in the absence and presence of the maximum concentration of each mesoionic used in the steady-state fluorescence studies (1.32 × 10^−5 M) at room temperature (ca 298 K).

[2] = biological target: T1, human serum albumin (HSA); test: Circular dichroism of HSA (secondary structure); assay type: binding; conditions: CD, 310 K, 1.32 × 10^−5 M compound; for α-helix % of HSA at 222 nm: HSA alone 80.1%; for α-helix % of HSA at 208 nm: HSA alone 86.7%
Description: The CD spectra were recorded in the 200–250 nm range at 310 K for free serum albumin (1.00 × 10^−6 M) and for HSA with the higher concentration of each mesoionic used in the steady-state fluorescence studies (1.32 × 10^−5 M). Each spectrum was taken on the average of three scans. The obtained data were further converted into mean residue ellipticity (MRE) according to Equation (6):(6) MRE=θ/(10.n.l.Cp) where θ is the observed ellipticity (mdeg); n is the number of amino acid residues (585 to HSA), l is the length of the optical cuvette (1.0 cm), and Cp is the molar concentration of HSA (1.00 × 10^−6 M). The 5a–d induced helical content perturbation at 208 and 222 nm were calculated using Equation (7):(7) (A) α−helix%(−MRE208−4000)/(33000−4000)×100(B) α−helix%(−MRE222−2340)/(30300)×100 where MRE208 and MRE222 are the significant molar residual ellipticities (deg.cm^2/dmol) at 208 nm and 222 nm, respectively.

[3] = tested on: MT2 cells (HTLV-1-infected cell line); test: MTT cell viability assay, MT2 cells; assay type: cell-based; conditions: Homo sapiens, 72 h incubation
Description: (§1) The 1 × 10^5 cells/mL were incubated with or without compounds 5a, 5b, 5c, 5d or DMSO (Sigma-Aldrich/Merck, St. Louis, MO, USA) at 37 °C in humidified atmosphere with a 5% CO2. After 72 h, the cellular viability was assessed using 5 mg/mL of 3-(4,5-dimethylthiazol-2-yl)-2,5-diphenyltetrazolium bromide (MTT, Sigma-Aldrich/Merck). Cells were incubated for 3 h, centrifuged, and formazan crystal was dissolved with DMSO. Plates were read on a Paradigma® spectrofluorometer (Molecular Devices, San Jose, CA, USA) at a 490 nm wavelength. Cell death was also evaluated using Propidium Iodide (Biolegend) exclusion after a 24 h culture under the same conditions described above. The fluorescence was examined by FACSCalibus flow cytometry (BD) and 10,000 events were acquired for the experimental data. Analysis was accomplished using Summit V4.0 or FlowJo software (Becton, Dickingson and Company, Santa Barbara, CA, USA).
(§2) Statistical analysis was performed by one-way analysis of variance (ANOVA) and means were compared using a Tukey post-test. The IC50 values were obtained using nonlinear regression. Data were analyzed using GraphPad Prism-5 software (GraphPad software, San Diego, CA, USA), and p ≤ 0.05 was considered statistically significant.

[4] = tested on: C91/PL cells (HTLV-1-infected); test: MTT cell viability assay, C91/PL cells; assay type: cell-based; conditions: 72 h incubation
Description: as §1, §2

[5] = tested on: Jurkat cells; test: MTT cell viability assay, Jurkat cells; assay type: cell-based; conditions: Homo sapiens, 72 h incubation
Description: as §1, §2

[6] = biological target: T1, human serum albumin (HSA); test: Steady-state fluorescence quenching of HSA; assay type: binding; conditions: for Kd: Ka (modified Stern–Volmer binding constant); for ΔS°: van't Hoff, 296–310 K
Description: The steady-state fluorescence spectra were measured in the 290–450 nm range, at 296, 303, and 310 K, with the excitation wavelength at λ = 295 nm. To a 3.0 mL solution containing an appropriate concentration of HSA (1.00 × 10^−5 M), successive aliquots from a stock solution of each mesoionic under study (1.00 × 10^−3 M in DMSO) were added, with final concentrations of 0.17, 0.33, 0.50, 0.66, 0.83, 0.99, 1.15, and 1.32 × 10^−5 M. The addition was done manually by using a micro syringe. The inner filter correction for the observed steady-state fluorescence of HSA:mesoionic compounds was done in order to compensate for the absorption value of 5a–d at the excitation and emission wavelengths (295 and 340 nm, respectively) when applying Equation (1):(1) Fcor=Fobs10^[Aexc+Aem/2] where Fcor and Fobs are the corrected and observed steady-state fluorescence intensity values, respectively, while Aex and Aem represent absorbance values for each ligand at the excitation and emission wavelengths (λ = 295 and 340 nm, respectively).
The binding properties of each ligand toward HSA—Stern–Volmer quenching constant (KSV), bimolecular quenching rate constant (kq), modified Stern–Volmer binding constant (Ka), enthalpy change (ΔH°), entropy change (ΔS°), and Gibbs’ free energy change (ΔG°)—were calculated from the steady-state fluorescence quenching data according to Equations (2)–(5):(2) F0/F=1+kqτ0[Q]=1+KSV[Q] (3) F0/F0−F=1/f[Q]Ka+1/f (4) lnKa=−ΔH^0/RT+ΔS^0/R (5) ΔG^0=ΔH^0−TΔS^0 where F0 and F are the steady-state fluorescence intensities of HSA in the absence and presence of mesoionics, respectively. [Q] and τ0 are the ligand concentration and fluorescence lifetime, respectively, of the fluorophore in the absence of quencher (5.54 × 10^−9 s—experimental data, see Section 2.3.1). T, ƒ, and R are the temperature (296, 303, and 310 K), fraction of the initial fluorescence intensity that corresponds to fluorophore that is accessible to the quencher (f ≈ 1.0), and gas constant (8.3145 J/mol.K), respectively.

[7] = biological target: T1, human serum albumin (HSA); test: Zeta potential of HSA (surface perturbation); assay type: binding; conditions: for ζ (zeta potential of HSA): HSA with 1.32 × 10^−5 M compound, HSA alone −9.15 ± 1.79; for Conductance: ZP measurement, HSA with compound
Description: All zeta potential (ZP) measurements were performed with 10 runs at 298 K and results were reported in terms of ZP ± SD. The ZP was measured for the HSA solution (1.0 × 10^−5 M in PBS solution) without and in the presence of the mesoionic compounds at the maximum concentration used in the steady-state fluorescence experiments (1.32 × 10^−5 M) at room temperature (ca. 298 K).

Compound | Relative % of τ1 [1] | Relative % of τ2 [1] | τ1 (HSA fluorescence lifetime) [1] | τ2 (HSA fluorescence lifetime) [1] | α-helix % of HSA at 222 nm [2] | α-helix % of HSA at 208 nm [2] | IC50 [3] | IC50 [4] | IC50 [5] | KSV (Stern–Volmer quenching constant) ([6]; 296 K) | kq (bimolecular quenching rate constant) ([6]; 296 K) | ΔG° ([6]; 296 K) | KSV (Stern–Volmer quenching constant) ([6]; 303 K) | kq (bimolecular quenching rate constant) ([6]; 303 K) | ΔG° ([6]; 303 K) | KSV (Stern–Volmer quenching constant) ([6]; 310 K) | kq (bimolecular quenching rate constant) ([6]; 310 K) | ΔG° ([6]; 310 K) | Kd ([6]; 296 K) | Kd ([6]; 303 K) | other results
Cc1ccc(Nc2n[n+](-c3ccccc3)c(/C=C/c3ccccc3)s2)cc1.[Cl-] [5a, (E)-3-Phenyl-5-(4′-methylphenylamino)-2-styryl-1,3,4-thiadiazol-3-ium chloride] | 26.4% | 73.6% | 1.61 ± 0.13 ns | 5.38 ± 0.13 ns | 78.5% | 84.0% | 1.51 µM | 2.82 µM | 2.15 µM | 1.19 ± 0.03 × 10^5 M^−1 | 2.15e+13 M⁻¹ s⁻¹ | -6.62 kcal/mol | 1.20 ± 0.03 × 10^5 M^−1 | 2.16e+13 M⁻¹ s⁻¹ | -6.76 kcal/mol | 1.21 ± 0.03 × 10^5 M^−1 | 2.18e+13 M⁻¹ s⁻¹ | -6.91 kcal/mol | 13 µM | 13.3 µM | Kd ([6]; 310 K): 13.7 µM; ΔS° [6]: 8.46 ± 0.05 × 10^−2 kJ.mol^−1K^−1; ζ (zeta potential of HSA) [7]: −8.62 ± 1.40 mV; Conductance [7]: 29,615 µs
Clc1ccc(Nc2n[n+](-c3ccccc3)c(/C=C/c3ccccc3)s2)cc1.[Cl-] [5c, (E)-3-Phenyl-5-(4′-chlorophenylamino)-2-styryl-1,3,4-thiadiazol-3-ium chloride] | 33.0% | 67.0% | 1.68 ± 0.11 ns | 5.66 ± 0.16 ns | 78.8% | 83.8% | 6.15 µM | 4.5 µM | 5.6 µM | 1.30 ± 0.03 × 10^5 M^−1 | 2.35e+13 M⁻¹ s⁻¹ | -6.72 kcal/mol | 1.36 ± 0.04 × 10^5 M^−1 | 2.45e+13 M⁻¹ s⁻¹ | -6.91 kcal/mol | 1.40 ± 0.03 × 10^5 M^−1 | 2.53e+13 M⁻¹ s⁻¹ | -7.1 kcal/mol | 11.7 µM | 11 µM | Kd ([6]; 310 K): 10.4 µM; ΔS° [6]: 11.6 ± 0.1 × 10^−2 kJ.mol^−1K^−1; ζ (zeta potential of HSA) [7]: −8.77 ± 1.52 mV; Conductance [7]: 29,622 µs
Brc1ccc(Nc2n[n+](-c3ccccc3)c(/C=C/c3ccccc3)s2)cc1.[Cl-] [5d, (E)-3-Phenyl-5-(4′-bromophenylamino)-2-styryl-1,3,4-thiadiazol-3-ium chloride] | 29.8% | 70.2% | 1.65 ± 0.10 ns | 5.37 ± 0.13 ns | 77.7% | 82.0% | 7.7 µM | 5.25 µM | 2.27 µM | 1.45 ± 0.02 × 10^5 M^−1 | 2.61e+13 M⁻¹ s⁻¹ | -6.67 kcal/mol | 1.54 ± 0.03 × 10^5 M^−1 | 2.79e+13 M⁻¹ s⁻¹ | -6.86 kcal/mol | 1.60 ± 0.03 × 10^5 M^−1 | 2.89e+13 M⁻¹ s⁻¹ | -7.03 kcal/mol | 11.5 µM | 11.1 µM | Kd ([6]; 310 K): 10.8 µM; ΔS° [6]: 10.6 ± 0.1 × 10^−2 kJ.mol^−1K^−1; ζ (zeta potential of HSA) [7]: −8.69 ± 1.50 mV; Conductance [7]: 29,638 µs
